Earlier results as cited in patent US20130040971A1, “6-CYCLOALKYL-PYRAZOLOPYRIMIDINONES FOR THE TREATMENT OF CNS DISORDERS” (Boehringer Ingelheim International GmbH, priority 2011, published 2013).

Experiments:
human PDE9A = human PDE9A (Homo sapiens, UniProt O76083); settings: concentrations of up to 100 micromolar (μM)
Murine PDE9A = target: T1, Murine PDE9A (Mus musculus, UniProt O70628); settings: concentrations below 200 micromolar
T1 sequence (O70628 1-534): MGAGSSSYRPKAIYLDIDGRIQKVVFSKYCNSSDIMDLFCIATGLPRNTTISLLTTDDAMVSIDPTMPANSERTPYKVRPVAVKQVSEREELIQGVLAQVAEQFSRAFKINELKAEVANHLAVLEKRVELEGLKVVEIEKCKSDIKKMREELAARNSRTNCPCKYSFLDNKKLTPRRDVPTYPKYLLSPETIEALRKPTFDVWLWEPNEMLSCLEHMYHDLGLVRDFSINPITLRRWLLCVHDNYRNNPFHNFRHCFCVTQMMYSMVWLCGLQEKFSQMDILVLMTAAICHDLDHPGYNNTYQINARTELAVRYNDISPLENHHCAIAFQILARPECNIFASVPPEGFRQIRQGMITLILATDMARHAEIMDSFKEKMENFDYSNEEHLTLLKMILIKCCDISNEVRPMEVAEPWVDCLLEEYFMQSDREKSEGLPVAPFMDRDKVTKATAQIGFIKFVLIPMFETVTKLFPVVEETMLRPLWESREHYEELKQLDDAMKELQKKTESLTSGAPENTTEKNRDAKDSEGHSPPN

Chain of human PDE9A (O76083 whole entry): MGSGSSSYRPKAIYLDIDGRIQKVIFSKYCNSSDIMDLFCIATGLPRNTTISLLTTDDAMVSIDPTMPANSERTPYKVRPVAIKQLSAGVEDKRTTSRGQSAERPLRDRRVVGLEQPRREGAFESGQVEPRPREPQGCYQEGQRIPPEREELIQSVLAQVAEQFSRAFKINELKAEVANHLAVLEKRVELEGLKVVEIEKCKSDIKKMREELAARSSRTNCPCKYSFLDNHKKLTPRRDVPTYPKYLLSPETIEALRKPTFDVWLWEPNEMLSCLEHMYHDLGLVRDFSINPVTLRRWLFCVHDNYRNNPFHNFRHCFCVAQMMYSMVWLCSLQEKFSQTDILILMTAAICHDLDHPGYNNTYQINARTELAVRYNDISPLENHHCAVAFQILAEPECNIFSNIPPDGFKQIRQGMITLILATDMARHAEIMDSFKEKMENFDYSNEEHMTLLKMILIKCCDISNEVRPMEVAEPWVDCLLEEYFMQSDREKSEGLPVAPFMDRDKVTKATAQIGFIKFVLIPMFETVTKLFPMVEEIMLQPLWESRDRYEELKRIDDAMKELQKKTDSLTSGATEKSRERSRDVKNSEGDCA

SMILES: CCOC(=O)C1=C[C@]2(CC)CCCN3CCc4c(n1c1ccccc41)[C@@H]32 [vinpocetine]
- inhibition on the isolated enzyme (human PDE9A) (human PDE9A): no inhibition

SMILES: COc1ccc(C2CNC(=O)C2)cc1OC1CCCC1 (stereo not drawn) [rolipram]
- inhibition on the isolated enzyme (human PDE9A) (human PDE9A): no inhibition

SMILES: CC(C)Cn1c(=O)n(C)c(=O)c2[nH]cnc21 [IBMX]
- inhibition on the isolated enzyme (human PDE9A) (human PDE9A): no inhibition
- inhibition of murine PDE9A (Murine PDE9A): not inhibited

SMILES: OCCN(CCO)c1nc(N2CCCCC2)c2nc(N(CCO)CCO)nc(N3CCCCC3)c2n1 [dipyridamole]
- inhibition on the isolated enzyme (human PDE9A) (human PDE9A): no inhibition

SMILES: CC(=O)Nc1ccc(-c2c[nH]c(=O)cn2)cc1 [SKF94120]
- inhibition on the isolated enzyme (human PDE9A) (human PDE9A): no inhibition
